How the values were obtained:
Format in all cases: toxicity, organism-based
Salmonella typhimurium [1] = experiment: Mutagenic activity in Salmonella Typhimurium TA98 assessed as number of spontaneous revertants at 500 ug/plate by Ames test in absence of rat liver microsomal S9 fraction; details: salmonella enterica subsp. enterica serovar typhimurium
Salmonella typhimurium [2] = experiment: Mutagenic activity in Salmonella Typhimurium TA100 assessed as number of spontaneous revertants at 500 ug/plate by Ames test in absence of rat liver microsomal S9 fraction; details: salmonella enterica subsp. enterica serovar typhimurium
Salmonella typhimurium [3] = experiment: Mutagenic activity in Salmonella Typhimurium TA100 assessed as number of spontaneous revertants at 500 ug/plate by Ames test in presence of rat liver microsomal S9 fraction; details: salmonella enterica subsp. enterica serovar typhimurium, microsomes
Salmonella typhimurium [4] = experiment: Mutagenic activity in Salmonella Typhimurium TA98 assessed as number of spontaneous revertants at 500 ug/plate by Ames test in presence of rat liver microsomal S9 fraction; details: salmonella enterica subsp. enterica serovar typhimurium, microsomes
Salmonella typhimurium [5] = experiment: Mutagenic activity in Salmonella Typhimurium TA98 assessed as increase in spontaneous revertants by Ames test relative to control spontaneous reversion; details: salmonella enterica subsp. enterica serovar typhimurium
Salmonella typhimurium [6] = experiment: Mutagenic activity in Salmonella Typhimurium TA100 assessed as increase in spontaneous revertants by Ames test relative to control spontaneous reversion; details: salmonella enterica subsp. enterica serovar typhimurium
Salmonella typhimurium [7] = experiment: Mutagenic activity in Salmonella Typhimurium TA97a assessed as number of spontaneous revertants at 500 ug/plate by Ames test in absence of rat liver microsomal S9 fraction; details: salmonella enterica subsp. enterica serovar typhimurium

For `O=C1C[C@H]2NCCCNCCCCN(CCCN1)C(=O)[C@@H]1c3cc2ccc3O[C@H]1c1ccc(O)cc1`, the Activity (Salmonella typhimurium [1]) was 81, the Activity (Salmonella typhimurium [2]) was 143 and the Activity (Salmonella typhimurium [3]) was 461. The Activity (Salmonella typhimurium [4]) was 778, the “fold change (FC)” value (Salmonella typhimurium [5]) was 22 and the “fold change (FC)” value (Salmonella typhimurium [6]) was 4. The Activity (Salmonella typhimurium [7]) was 0.

Source: ChEMBL document CHEMBL1150183, “Spermine alkaloids from Schweinfurthia papilionacea” (J Nat Prod, 1990)
